Reference: the NIST ThermoML archive (doi:10.1021/je101316g)
± gives the expanded uncertainty stated by the source.

Legend:
[1] = 101.33 kPa, Liquid; for mass density: Vibrating tube method
[2] = refractive index (Na D-line) (dimensionless); settings: 101.33 kPa, Liquid, Standard Abbe refractometry

| SMILES | mass density ([1]; 293.15 K) | viscosity ([1]; 298.15 K) | mass density ([1]; 298.15 K) | viscosity ([1]; 303.15 K) | mass density ([1]; 303.15 K) | viscosity ([1]; 308.15 K) | mass density ([1]; 308.15 K) | viscosity ([1]; 313.15 K) | mass density ([1]; 313.15 K) | viscosity ([1]; 318.15 K) | mass density ([1]; 318.15 K) | viscosity ([1]; 323.15 K) | mass density ([1]; 323.15 K) | viscosity ([1]; 328.15 K) | mass density ([1]; 328.15 K) | viscosity ([1]; 333.15 K) | mass density ([1]; 333.15 K) | viscosity ([1]; 338.15 K) | mass density ([1]; 338.15 K) | viscosity ([1]; 343.15 K) | further results |
| --- | --- | --- | --- | --- | --- | --- | --- | --- | --- | --- | --- | --- | --- | --- | --- | --- | --- | --- | --- | --- | --- |
| CCCCC(CC)COC(=O)CC(C(=O)OCC(CC)CCCC)S(=O)(=O)[O-].CCCCCC[n+]1ccn(CCC#N)c1 (stereo not drawn) | 1092.7 ± 2.6 kg/m3 | 19896 ± 6400 mPa·s | 1089 ± 2.6 kg/m3 | 12117 ± 3600 mPa·s | 1085.4 ± 2.6 kg/m3 | 7571.4 ± 2100 mPa·s | 1081.8 ± 2.5 kg/m3 | 4586.7 ± 1100 mPa·s | 1078.3 ± 2.5 kg/m3 | 2939.5 ± 650 mPa·s | 1074.8 ± 2.5 kg/m3 | 1947.7 ± 390 mPa·s | 1071.3 ± 2.5 kg/m3 | 1264.7 ± 220 mPa·s | 1067.9 ± 2.5 kg/m3 | 848.3 ± 130 mPa·s | 1064.4 ± 2.5 kg/m3 | 579.4 ± 78 mPa·s | 1061 ± 2.4 kg/m3 | 411.4 ± 48 mPa·s | mass density ([1]; 343.15 K): 1057.6 ± 2.4 kg/m3; viscosity ([1]; 348.15 K): 278.6 ± 27 mPa·s; mass density ([1]; 348.15 K): 1054.2 ± 2.4 kg/m3; viscosity ([1]; 353.15 K): 191.2 ± 15 mPa·s; mass density ([1]; 353.15 K): 1050.7 ± 2.4 kg/m3; refractive index ([2]; 298.15 K): 1.4797 ± 0.00076; refractive index ([2]; 303.15 K): 1.47841 ± 0.00076; refractive index ([2]; 308.15 K): 1.47709 ± 0.00076; refractive index ([2]; 313.15 K): 1.4758 ± 0.00076; refractive index ([2]; 318.15 K): 1.47447 ± 0.00076; refractive index ([2]; 323.15 K): 1.47305 ± 0.00076; refractive index ([2]; 328.15 K): 1.47171 ± 0.00076; refractive index ([2]; 333.15 K): 1.47029 ± 0.00077 |
| CCCCCCn1cc[n+](CCC#N)c1.O=S(=O)([O-])c1ccccc1 [3-(2-cyanoethyl)-1-hexyl-1H-imidazolium benzenesulfonate] | 1226 ± 2.5 kg/m3 | 4268.1 ± 1000 mPa·s | 1222.7 ± 2.5 kg/m3 | 2865.6 ± 630 mPa·s | 1219.4 ± 2.5 kg/m3 | 1795.1 ± 350 mPa·s | 1216.1 ± 2.5 kg/m3 | 1170.4 ± 200 mPa·s | 1212.8 ± 2.5 kg/m3 | 781.3 ± 120 mPa·s | 1209.6 ± 2.5 kg/m3 | 537.6 ± 70 mPa·s | 1206.3 ± 2.5 kg/m3 | 359.9 ± 39 mPa·s | 1203 ± 2.4 kg/m3 | 274.2 ± 26 mPa·s | 1199.7 ± 2.4 kg/m3 | 181 ± 13 mPa·s | 1196.5 ± 2.4 kg/m3 | 133.6 ± 7.6 mPa·s | viscosity ([1]; 293.15 K): 7079.4 ± 1900 mPa·s; mass density ([1]; 343.15 K): 1193.3 ± 2.4 kg/m3; viscosity ([1]; 348.15 K): 94.6 ± 3.8 mPa·s; mass density ([1]; 348.15 K): 1190.1 ± 2.4 kg/m3; viscosity ([1]; 353.15 K): 70 ± 1.9 mPa·s; mass density ([1]; 353.15 K): 1187.8 ± 2.4 kg/m3; refractive index ([2]; 298.15 K): 1.527 ± 0.00066; refractive index ([2]; 303.15 K): 1.5261 ± 0.00067; refractive index ([2]; 308.15 K): 1.52499 ± 0.00068; refractive index ([2]; 313.15 K): 1.52382 ± 0.00068; refractive index ([2]; 318.15 K): 1.52266 ± 0.00068; refractive index ([2]; 323.15 K): 1.52145 ± 0.00068; refractive index ([2]; 328.15 K): 1.52025 ± 0.00069; refractive index ([2]; 333.15 K): 1.51899 ± 0.00069 |
| CCCCCCCCCCCCOS(=O)(=O)[O-].CCCCCCn1cc[n+](CCC#N)c1 [3-(2-cyanoethyl)-1-hexyl-1H-imidazolium dodecyl sulfate] | 1101.1 ± 2.3 kg/m3 | 13770 ± 4200 mPa·s | 1097.8 ± 2.3 kg/m3 | 8252.7 ± 2300 mPa·s | 1094.5 ± 2.3 kg/m3 | 5185.2 ± 1300 mPa·s | 1091.2 ± 2.3 kg/m3 | 3354.6 ± 760 mPa·s | 1088 ± 2.3 kg/m3 | 2051 ± 410 mPa·s | 1084.7 ± 2.3 kg/m3 | 1301.8 ± 230 mPa·s | 1081.5 ± 2.3 kg/m3 | 846.3 ± 130 mPa·s | 1078.3 ± 2.3 kg/m3 | 566.9 ± 75 mPa·s | 1075.1 ± 2.2 kg/m3 | 390.1 ± 44 mPa·s | 1071.9 ± 2.2 kg/m3 | 274.9 ± 26 mPa·s | mass density ([1]; 343.15 K): 1068.8 ± 2.2 kg/m3; viscosity ([1]; 348.15 K): 189.5 ± 14 mPa·s; mass density ([1]; 348.15 K): 1065.6 ± 2.2 kg/m3; viscosity ([1]; 353.15 K): 133.6 ± 7.7 mPa·s; mass density ([1]; 353.15 K): 1062.6 ± 2.2 kg/m3; refractive index ([2]; 298.15 K): 1.48409 ± 0.00073; refractive index ([2]; 303.15 K): 1.48269 ± 0.00073; refractive index ([2]; 308.15 K): 1.48125 ± 0.00073; refractive index ([2]; 313.15 K): 1.47991 ± 0.00072; refractive index ([2]; 318.15 K): 1.47863 ± 0.00073; refractive index ([2]; 323.15 K): 1.47702 ± 0.00074; refractive index ([2]; 328.15 K): 1.47566 ± 0.00073; refractive index ([2]; 333.15 K): 1.47422 ± 0.00073 |
| CCCCCCn1cc[n+](CCC#N)c1.O=S(=O)([O-])C(F)(F)F | 1289.6 ± 4.6 kg/m3 | 1469.7 ± 270 mPa·s | 1285.7 ± 4.6 kg/m3 | 991.9 ± 160 mPa·s | 1281.9 ± 4.6 kg/m3 | 648.5 ± 91 mPa·s | 1278.3 ± 4.6 kg/m3 | 437.8 ± 52 mPa·s | 1274.6 ± 4.5 kg/m3 | 301.9 ± 30 mPa·s | 1271 ± 4.5 kg/m3 | 214 ± 18 mPa·s | 1267.4 ± 4.5 kg/m3 | 155.1 ± 10 mPa·s | 1263.8 ± 4.5 kg/m3 | 102.7 ± 4.7 mPa·s | 1260.2 ± 4.4 kg/m3 | 77.4 ± 2.5 mPa·s | 1256.6 ± 4.4 kg/m3 | 54.8 ± 1.3 mPa·s | viscosity ([1]; 293.15 K): 2243.6 ± 460 mPa·s; mass density ([1]; 343.15 K): 1253.1 ± 4.4 kg/m3; viscosity ([1]; 348.15 K): 40.1 ± 1 mPa·s; mass density ([1]; 348.15 K): 1249.2 ± 4.3 kg/m3; viscosity ([1]; 353.15 K): 29.4 ± 0.8 mPa·s; mass density ([1]; 353.15 K): 1245.8 ± 4.3 kg/m3; refractive index ([2]; 298.15 K): 1.52975 ± 0.0008; refractive index ([2]; 303.15 K): 1.52891 ± 0.00081; refractive index ([2]; 308.15 K): 1.52774 ± 0.00081; refractive index ([2]; 313.15 K): 1.52683 ± 0.00081; refractive index ([2]; 318.15 K): 1.5259 ± 0.00081; refractive index ([2]; 323.15 K): 1.52464 ± 0.00082; refractive index ([2]; 328.15 K): 1.52334 ± 0.00082; refractive index ([2]; 333.15 K): 1.52226 ± 0.00081 |
| CCCCCCn1cc[n+](CCC#N)c1.O=C([O-])c1cccc(S(=O)(=O)O)c1 [3-(2-cyanoethyl)-1-hexyl-1H-imidazolium 3-sulfobenzoate] | 1248.1 ± 3.6 kg/m3 | 11463 ± 3400 mPa·s | 1244.6 ± 3.6 kg/m3 | 7578.3 ± 2100 mPa·s | 1241.2 ± 3.6 kg/m3 | 4765.8 ± 1200 mPa·s | 1238 ± 3.6 kg/m3 | 3001.1 ± 670 mPa·s | 1234.7 ± 3.6 kg/m3 | 1953.3 ± 390 mPa·s | 1231.5 ± 3.5 kg/m3 | 1189.9 ± 210 mPa·s | 1228.2 ± 3.5 kg/m3 | 830.5 ± 130 mPa·s | 1225 ± 3.5 kg/m3 | 557.3 ± 74 mPa·s | 1221.8 ± 3.5 kg/m3 | 352.1 ± 38 mPa·s | 1218.6 ± 3.5 kg/m3 | 225.5 ± 19 mPa·s | viscosity ([1]; 293.15 K): 19212 ± 6200 mPa·s; mass density ([1]; 343.15 K): 1215.4 ± 3.4 kg/m3; viscosity ([1]; 348.15 K): 133.6 ± 7.9 mPa·s; mass density ([1]; 348.15 K): 1212.1 ± 3.4 kg/m3; viscosity ([1]; 353.15 K): 92.8 ± 3.8 mPa·s; mass density ([1]; 353.15 K): 1208.9 ± 3.4 kg/m3; refractive index ([2]; 298.15 K): 1.52295 ± 0.00074; refractive index ([2]; 303.15 K): 1.52221 ± 0.00074; refractive index ([2]; 308.15 K): 1.52146 ± 0.00075; refractive index ([2]; 313.15 K): 1.52029 ± 0.00076; refractive index ([2]; 318.15 K): 1.51936 ± 0.00076; refractive index ([2]; 323.15 K): 1.518 ± 0.00078; refractive index ([2]; 328.15 K): 1.51666 ± 0.00079; refractive index ([2]; 333.15 K): 1.51502 ± 0.0008 |
